Reference: the CheMixHub viscosity set
± gives the uncertainty stated by the source.

Test: xn = mol fraction of the nth substance listed

CC(=O)N(C)C + COC(=O)OC
298.15 K, 101 kPa
Conditions	viscosity [mPa·s]
x2 = 0.0376	0.937 ± 0.007
x2 = 0.0836	0.914 ± 0.007
x2 = 0.1443	0.887 ± 0.007
x2 = 0.2234	0.854 ± 0.007
x2 = 0.3348	0.807 ± 0.007
x2 = 0.4705	0.757 ± 0.006
x2 = 0.5544	0.726 ± 0.006
x2 = 0.6212	0.702 ± 0.006
x2 = 0.6902	0.679 ± 0.006
x2 = 0.7541	0.659 ± 0.006
x2 = 0.8244	0.636 ± 0.005
x2 = 0.9102	0.608 ± 0.005

CCCCCCCCCO + COC(=O)OC
Conditions	viscosity [mPa·s]
293.15 K, 101 kPa, x1 = 0.008	0.63
293.15 K, 101 kPa, x2 = 0.06435	9.044
293.15 K, 101 kPa, x2 = 0.1251	7.282
293.15 K, 101 kPa, x2 = 0.2318	5.067
293.15 K, 101 kPa, x2 = 0.322	3.834
293.15 K, 101 kPa, x2 = 0.4095	2.962
293.15 K, 101 kPa, x2 = 0.4994	2.281
293.15 K, 101 kPa, x2 = 0.6032	1.706
293.15 K, 101 kPa, x2 = 0.699	1.3
293.15 K, 101 kPa, x2 = 0.7961	0.991
293.15 K, 101 kPa, x2 = 0.8901	0.776
303.15 K, 100 kPa, x2 = 0.1	5.632 ± 0.17
303.15 K, 100 kPa, x2 = 0.1999	4.161 ± 0.13
303.15 K, 100 kPa, x2 = 0.3	3.081 ± 0.095
303.15 K, 100 kPa, x2 = 0.4	2.342 ± 0.072
303.15 K, 100 kPa, x2 = 0.5	1.81 ± 0.056
303.15 K, 100 kPa, x2 = 0.6	1.384 ± 0.043
303.15 K, 100 kPa, x2 = 0.7	1.06 ± 0.033
303.15 K, 100 kPa, x2 = 0.8	0.831 ± 0.026
303.15 K, 100 kPa, x2 = 0.9	0.658 ± 0.02
303.15 K, 101 kPa, x1 = 0.00584	0.55
303.15 K, 101 kPa, x2 = 0.04989	6.721
303.15 K, 101 kPa, x2 = 0.1183	5.358
303.15 K, 101 kPa, x2 = 0.2164	3.942
303.15 K, 101 kPa, x2 = 0.3115	2.991
303.15 K, 101 kPa, x2 = 0.4106	2.28
303.15 K, 101 kPa, x2 = 0.4935	1.832
303.15 K, 101 kPa, x2 = 0.6036	1.368
303.15 K, 101 kPa, x2 = 0.7016	1.059
303.15 K, 101 kPa, x2 = 0.7951	0.835
303.15 K, 101 kPa, x2 = 0.8982	0.657
308.15 K, 100 kPa, x2 = 0.1	4.801 ± 0.15
308.15 K, 100 kPa, x2 = 0.1999	3.592 ± 0.11
308.15 K, 100 kPa, x2 = 0.3	2.702 ± 0.083
308.15 K, 100 kPa, x2 = 0.4	2.074 ± 0.064
308.15 K, 100 kPa, x2 = 0.5	1.627 ± 0.05
308.15 K, 100 kPa, x2 = 0.6	1.253 ± 0.039
308.15 K, 100 kPa, x2 = 0.7	0.972 ± 0.03
308.15 K, 100 kPa, x2 = 0.8	0.769 ± 0.024
308.15 K, 100 kPa, x2 = 0.9	0.617 ± 0.019
313.15 K, 100 kPa, x2 = 0.1	4.133 ± 0.13
313.15 K, 100 kPa, x2 = 0.1999	3.123 ± 0.096
313.15 K, 100 kPa, x2 = 0.3	2.398 ± 0.074
313.15 K, 100 kPa, x2 = 0.4	1.848 ± 0.057
313.15 K, 100 kPa, x2 = 0.5	1.467 ± 0.045
313.15 K, 100 kPa, x2 = 0.6	1.141 ± 0.035
313.15 K, 100 kPa, x2 = 0.7	0.893 ± 0.028
313.15 K, 100 kPa, x2 = 0.8	0.713 ± 0.022
313.15 K, 100 kPa, x2 = 0.9	0.579 ± 0.018
313.15 K, 101 kPa, x1 = 0.00538	0.492
313.15 K, 101 kPa, x2 = 0.06799	4.566
313.15 K, 101 kPa, x2 = 0.1245	3.835
313.15 K, 101 kPa, x2 = 0.2254	2.876
313.15 K, 101 kPa, x2 = 0.2945	2.39
313.15 K, 101 kPa, x2 = 0.433	1.677
313.15 K, 101 kPa, x2 = 0.5255	1.342
313.15 K, 101 kPa, x2 = 0.6009	1.118
313.15 K, 101 kPa, x2 = 0.6997	0.882
313.15 K, 101 kPa, x2 = 0.8024	0.702
313.15 K, 101 kPa, x2 = 0.9014	0.571
318.15 K, 100 kPa, x2 = 0.1	3.586 ± 0.11
318.15 K, 100 kPa, x2 = 0.1999	2.735 ± 0.084
318.15 K, 100 kPa, x2 = 0.3	2.137 ± 0.066
318.15 K, 100 kPa, x2 = 0.4	1.662 ± 0.051
318.15 K, 100 kPa, x2 = 0.5	1.317 ± 0.041
318.15 K, 100 kPa, x2 = 0.6	1.04 ± 0.032
318.15 K, 100 kPa, x2 = 0.7	0.823 ± 0.025
318.15 K, 100 kPa, x2 = 0.8	0.665 ± 0.021
318.15 K, 100 kPa, x2 = 0.9	0.545 ± 0.017
323.15 K, 100 kPa, x2 = 0.1	3.119 ± 0.096
323.15 K, 100 kPa, x2 = 0.1999	2.397 ± 0.074
323.15 K, 100 kPa, x2 = 0.3	1.888 ± 0.058
323.15 K, 100 kPa, x2 = 0.4	1.494 ± 0.046
323.15 K, 100 kPa, x2 = 0.5	1.199 ± 0.037
323.15 K, 100 kPa, x2 = 0.6	0.951 ± 0.029
323.15 K, 100 kPa, x2 = 0.7	0.763 ± 0.024
323.15 K, 100 kPa, x2 = 0.8	0.621 ± 0.019
323.15 K, 100 kPa, x2 = 0.9	0.514 ± 0.016

CCCCCCCC[n+]1ccn(C)c1.F[B-](F)(F)F + COC(C)=O
Conditions	viscosity [mPa·s]
298.15 K, 101 kPa, x1 = 0.7036	69.93 ± 20

C1CCCCCCCCCCC1 + Cc1ccccc1
303 K, 101 kPa
Conditions	viscosity [mPa·s]
x1 = 0.0186	0.5245 ± 0.0045
x2 = 0.8099	0.6724 ± 0.0055
x2 = 0.9012	0.5699 ± 0.0048
x2 = 0.9426	0.5336 ± 0.0045

Cc1cccc2ccccc12 + Cc1ccccc1
viscosity [mPa·s], 100 kPa
Conditions	x2 = 0.2784	x2 = 0.6068	x2 = 0.8224
298.15 K	1.646 ± 0.16	1.036 ± 0.099	0.731 ± 0.069
313.15 K	1.285 ± 0.12	0.841 ± 0.08	0.608 ± 0.058

O=[N+]([O-])c1ccccc1O + Cc1ccccc1
viscosity [mPa·s], 101 kPa
Conditions	303.15 K	308.15 K	313.15 K	318.15 K	323.15 K
x1 = 0.5473	1.278 ± 0.032	1.182 ± 0.03	1.088 ± 0.027	1.011 ± 0.025	0.942 ± 0.024
x1 = 0.7633	–	1.838 ± 0.046	1.672 ± 0.042	1.528 ± 0.039	1.411 ± 0.036

CC1CCCCC1=O (configuration not stated) + NC=O
viscosity [mPa·s], 100 kPa
Conditions	x1 = 0.1005	x1 = 0.1979	x1 = 0.2917	x1 = 0.4002	x1 = 0.5089	x1 = 0.6019	x1 = 0.6999	x1 = 0.8001	x1 = 0.9001
303.15 K	2.822 ± 0.065	2.768 ± 0.063	2.712 ± 0.062	2.644 ± 0.06	2.575 ± 0.059	2.513 ± 0.057	2.446 ± 0.056	2.375 ± 0.054	2.302 ± 0.052
308.15 K	2.583 ± 0.059	2.549 ± 0.059	2.513 ± 0.058	2.468 ± 0.056	2.42 ± 0.055	2.378 ± 0.054	2.331 ± 0.053	2.281 ± 0.052	2.228 ± 0.051
313.15 K	2.346 ± 0.054	2.332 ± 0.054	2.315 ± 0.053	2.291 ± 0.052	2.265 ± 0.052	2.242 ± 0.051	2.217 ± 0.05	2.188 ± 0.05	2.154 ± 0.049
